From patent US20180153830A1, “SELECTIVE INHIBITORS OF UNDIFFERENTIATED CELLS” (Yissum Research Development Company of the Hebrew …, priority 2012, published 2018)

Experiments:
Assay type in all cases: cell-based, human
[1] = hPSC viability after SCD1 inhibitors with or without oleic acid; settings: human, human pluripotent stem cells (hPSCs), 75 nM, read-out: decrease in viability of hPSCs
Procedure: (§1) In order to determine whether hPSC viability indeed depends on functional SCD1 activity, hPSCs were exposed to 75 nM of the specific SCD1 inhibitors A939572 and CAY-10566 for 48 hours. Some samples were supplemented with 100 μM oleic acid in order to evaluate the effect of exogenous supplementation of oleic acid (a product of SCD1 activity) on cell death.

[2] = tested on: hPSCs; test: as above; settings: 75 nM inhibitor, 100 μM oleic acid, 48 hours
Procedure: as §1

[3] = tested on: caspase-3 in embryonic stem cells; test: Immunoblotting for caspase-3; settings: 20 μM
Procedure: For immunoblotting, 10% polyacrylamide gel was used for protein separation and detection. The gel was transferred to a nitrocellulose membrane and antibody hybridization and chemiluminescence were performed according to standard procedures. The primary antibodies in this analysis were rabbit anti-phosphorylated-eIF2a (1:250, Cell Signaling Technology), rabbit anti caspase-3 (1:1,000, Cell Signaling Technology), mouse anti β-catenin (1:10,000, BD Biosciences) and mouse anti-α-tubulin (1:50,000, Sigma-Aldrich). Horseradish peroxidase-conjugated anti-rabbit and anti-mouse secondary antibodies were obtained from Jackson Immunoresearch Laboratories.
The finding of gene expression associated with apoptosis is consistent with previous reports that pluripotent cells are prone to apoptosis [Qin et al., Journal of Biological Chemistry 282:5842-5852 (2007); Momcilovic et al., PloS One 5:e13410 (2010)]. However, pluripotent cells have also been reported to be susceptible to other types of cell death, such as oncosis [Tan et al., Stem Cells 27:1792-1801 (2009)] and autophagy [Alexander et al., PNAS 108:15828-15833 (2011)]. An Annexin V-FITC detection assay and immunoblotting for caspase-3 (a hallmark executioner of apoptosis) were therefore used in order to confirm that the massive hPSC death induced by PluriSIn #1 is indeed apoptosis.

[4] = tested on: pluripotent cells in mixed cell population (differentiated and undifferentiated CSES2-SO2/3 cells); test: FACS analysis of TRA-1-60 in mixed cell populations; settings: 48 hours, 6-well plates
Procedure: For quantification of remaining undifferentiated cells after treatment, cells were treated with 20 μM PluriSIn #1 (isonicotinic acid N′-phenylhydrazide) for 48 hours or 72 hours, dissociated using TrypLE™ Select (Invitrogen), and washed with PBS supplemented with 10% FBS and 0.05% sodium azide. Dissociated cells were suspended to a final concentration of 10^6 cells/ml. Cells were incubated on ice with TRA1-60-PE antibody (1:40, BD Biosciences), washed and analyzed using LSR II FACS (BD Biosciences) with FCS Express software (De Novo Software, Los Angeles, Calif.).
(§2) Mixed cell populations were cultured in 6-well plates and exposed to PluriSIn #1 for 48 hours. The cells were then analyzed by FACS analysis, using staining for the pluripotent marker TRA-1-60, and by fluorescence microscopy imaging of OCT4, as described in the Materials and Methods section.

[5] = tested on: transformed BJ fibroblasts; test: Methylene blue viability, transformed BJ fibroblasts; settings: up to 100 μM, 72 hours, 2% fetal bovine serum
Procedure: (§3) For the high-throughput screens, relative cell number was determined using a CellTiter-Glo® Luminescent Cell Viability Assay as described hereinabove. Otherwise, relative cell numbers were determined by fixating the cells with 0.5% glutardialdehyde and staining with methylene blue dissolved in 0.1 M boric acid (pH 8.5). Color extraction was performed using 0.1 M hydrochloric acid, and the staining (which is proportional to cell number) was quantified by measuring absorbance at a wavelength of 650 nm.
(§4) In one experiment, immortalized BJ fibroblasts served as differentiated cells and were compared with BJ fibroblasts induced to undergo cellular transformation, which served as their undifferentiated cancerous counterparts. […]
(§5) The differentiated and undifferentiated cells were exposed to PluriSIn #1 at concentrations of up to 100 μM for 72 hours under low (2%) fetal bovine serum conditions. Their viability was then measured using a methylene blue viability assay, as described hereinabove.

[6] = tested on: normal (immortalized) BJ fibroblasts; test: Methylene blue viability, immortalized BJ fibroblasts; settings: up to 100 μM, 72 hours, 2% fetal bovine serum
Procedure: as §3, §4, §5

[7] = tested on: OCT4-expressing CSES2-SO2/3 cells; test: Fluorescence microscopy imaging of OCT4 in mixed cell populations; settings: 48 hours, mixed cell population
Procedure: High content imaging of CSES2-SO2/3 fluorescent cells (mCherry+ or EGFP+) was performed in black clear-bottom 384-well assay plates (Falcon BD), using the Opera high-content screen imaging platform (PerkinElmer). Otherwise, light and fluorescence imaging of all cells was performed in 24-well, 6-well or 10 cm CELLSTAR® plates (Greiner Bio-One), using an Olympus CellR imaging station. Light imaging of developing mouse embryos was performed in 35 mm culture dishes (Falcon BD), using an Olympus IX70 microscope.
as §2

[8] = tested on: non-pluripotent cell types (BJ-fibroblasts, HeLa, HepG2 and Kelly cells); test: Methylene blue viability of non-pluripotent cells in embryonic stem cell medium; settings: 20 μM, 72 hours
Procedure: as §3
In order to ascertain that the selectivity of PluriSin cytotoxicity is cell type-dependent rather than cell medium-dependent, four non-pluripotent cell types (BJ-fibroblasts, HeLa, HepG2 and Kelly cells) were cultured in human embryonic stem cell medium and exposed to PluriSIn #1 for 72 hours. Cell viability was then determined by a methylene blue assay, as described hereinabove.

SMILES	cytotoxicity at 48 h, 75 nM [1] [%]	rescue from SCD1 inhibitor-induced cell death by oleic acid [2]	activation of caspase-3 [3]	pluripotent cells eliminated from culture (TRA-1-60 FACS) [4]	cytotoxicity towards transformed BJ fibroblasts [5]	effect on normal (immortalized) BJ fibroblasts [6]	elimination of OCT4-expressing cells [7]	viability of non-pluripotent cells cultured in embryonic stem cell medium [8]
CNC(=O)c1cccc(NC(=O)N2CCC(Oc3ccccc3Cl)CC2)c1 [A939572, 4-(2-chlorophenoxy)-N-(3-(methylcarbamoyl)-phenyl)piperidine-1-carboxamide, reference compound]	> 80	completely rescued						
O=C(NNc1ccccc1)c1ccncc1 [PluriSIn #1, isonicotinic acid N′-phenylhydrazide]			enhanced activation of caspase-3	over 99%	highly cytotoxic	little effect	eliminated almost all OCT4-expressing cells	no effect
